Test results taken from paper PMC12162873, “Modulating phosphatase DUSP22 with BML-260 ameliorates skeletal muscle wasting via Akt independent JNK-FOXO3a repression” (EMBO Molecular Medicine, 2025).
Where “and” joins values, the source holds several entries; their conditions need not be identical. Identical values can stand only once. Entries after “also recorded” stand apart in the source; their conditions may differ.

Legend:
DUSP22 = system: DUSP22; parameters: method as in Cutshall et al, 2005; conditions: ref Cutshall et al, 2005, cited from earlier work
C57BL/6 mice = assay: Hind limb immobilization model, BML-260 treatment; type: in vivo, mouse
Procedure: (§1) Western blotting was carried out using the previously published protocol (Lee et al, [2020]). The NIH imaging software Image J 64 was used for densitometry analysis of the gel bands. The primary and secondary antibodies used in this study are shown in the reagent and tools table. Chemiluminescence was used to detect the secondary antibody.
To immobilize the hind limbs, 14-week-old male C57BL/6 mice were anesthetized with isoflurane and both hind limbs were fixed with plastic EP-tubes (Axygen, MCT-175-C). To prevent the tubes from slipping, the junction between the tubes and the hind limbs were wrapped with insulating tape. BML-260 was treated as follows: (1) vehicle alone (5% DMSO + 5% tween 80) and (2) 5 mg/kg BML-260 (n = 3 per group). The mice were monitored daily and sacrificed after 14 days.
Mice were anesthetized using ketamine (22 mg/kg; Yuhan, Republic of Korea) and xylazine (10 mg/kg; Bayer, Republic of Korea) in saline by IP injection. The quadriceps, gastrocnemius, soleus and TA muscles were then dissected and weighed. For histological analysis, the muscles were fixed by overnight incubation with 4% paraformaldehyde in PBS pH 7.4 at 4 °C. Paraffin sectioning and H&E staining were provided by the Animal Housing Facility, Gwangju Institute of Science and Technology, Republic of Korea (5 µm muscle sections using a Thermo Scientific HistoStar (Thermofisher). H&E staining was carried out with a kit (Merck, Germany)). For immunohistochemistry, TA muscle sections were permeabilized for 15 min (PBS with 0.5% Triton X-100), blocked for 1 h (5% BSA) and incubated with the primary antibody overnight at 4 °C (a list of primary and secondary antibodies used in this study are provided in Appendix Tables S4 and S5, respectively). After washing with PBS 3 times for 5 min, the sections were incubated with the secondary antibody at RT for 1 h. The nuclei were counterstained with DAPI in ProLong™ Gold Antifade Mountant (Invitrogen, P36935). Digital images were acquired with Leica DM 2500 (Leica Microsystems). Cross sectional area (CSA) and fiber size distribution was measured using the NIH imaging software Image J 64. To CSA and size distribution of different fiber types was calculated in 4 muscle section as follows: type 2 A: 30–40 fibers measured; type 2B: at least 100 fibers measured; type 2X: 30–40 fibers measured.

C2C12 myotubes = assay: Western blotting of C2C12 myotubes; type: cell-based, mouse
Procedure: C2C12 murine skeletal muscle myoblasts were purchased from Koram Biotech Corp. (Seoul, Republic of Korea). Prior to experiments, mycoplasma contamination was eliminated using the MycoXpert Mycoplasma Removal Reagent (MYX-B, CAPRICORN) following the manufacturer’s protocol. To ensure complete removal, all cells were passaged three times after treatment before being used in subsequent experiments. No STR profiling was recently undertaken. Myoblasts were cultured in growth media (GM), containing Dulbecco’s modified Eagle’s medium (DMEM), 10% fetal bovine serum, and 1% penicillin and streptomycin (PenStrep). C2C12 myoblasts were differentiated into myotubes at more than 80% confluence by culture in differentiation media (DM), containing DMEM supplemented with 2% horse serum and PenStrep, for 96 h. To induce atrophy, the myotubes were treated with DM plus 10 μM Dex for 24 h. BML-260 and SP600125 were purchased from Santa Cruz Biotechnology, TX, USA (cat. no. sc-223822 and sc-200635).
as §1, with “antibody. […]” for “antibody.”

[1] = system: 15-month-old C57BL/6J male mice; assay: Assessment of potential organ toxicity (liver, heart, kidney); type: in vivo, mouse; parameters: Kidney mass / Liver mass / heart mass / Kidney mass, Average / Liver mass, Average / heart mass, Average: unit not given here; conditions: 5 mg/kg IP every 24 h for 6 weeks
Procedure: To assess the effect of BML-260 treatment on the liver, heart and kidney, 15-month-old C57BL/6J male mice were treated as follows: 1) Vehicle (DMSO in PBS pH 7.4 with 5% Tween 80) alone, 2) 5 mg/kg BML-260 (n = 4 per group). BML-260 was administered via IP delivery every 24 h for 6 weeks. The mice were then sacrificed and the liver, kidneys and heart were weighed and photographed.
A) Photographs of the kidneys, liver, and heart after 6 weeks treatment with 5 mg/kg in 15 month-old mice. (n=4) B) Kidney(p=0.4403), liver(0.5545), and heart(0.5349) mass. ns=not statistically significant. n represents biological replicates analyzed by Student’s t test. Error bars represent the standard error of the mean (SEM).
(1 picture or pasted object on this page, not shown here)

[2] = 5 mg/kg BML-260, 14 days immobilization
[3] = TA of immobilized mice (Fig EV4), Sham average = 1
[4] = TA of immobilized mice (Fig EV4), Sham average = 1, individual animals

O=C(O)c1ccc(N2C(=O)C(=Cc3ccccc3)SC2=S)cc1 (stereo in doubt) [BML-260]
IC50 (DUSP22; EGF-R peptide P32-based assay): 18 µM
IC50 for DUSP22 (in words) (DUSP22): low micromolar range
mode of DUSP22 inhibition (DUSP22): competitive inhibitor
DUSP22 levels in TA and gastrocnemius muscles, western blot (C57BL/6 mice; [2]): reduced DUSP22 levels
MYH4 (myosin heavy chain 2B) in TA muscle, western blot (C57BL/6 mice; [2]): upregulation
atrogin-1 and MuRF-1 expression in immobilized TA, western blot (C57BL/6 mice; [2]): downregulated
phosphorylation level of JNK in TA muscle, western blot (C57BL/6 mice; [2]): reduction
DUSP22, western blot quantification, Average (C57BL/6 mice; SHAM average = 1): 0.5293
DUSP22, western blot quantification (C57BL/6 mice; SHAM average = 1, individual animals): 0.9793 and 0.6244 and 0.3303 and 0.3563 and 0.317 and 0.5687
DUSP22, western blot quantification, Average (C57BL/6 mice; TA muscle of immobilized mice (Fig EV5), Sham average = 1): 1.168
DUSP22, western blot quantification (C57BL/6 mice; TA muscle of immobilized mice (Fig EV5), Sham average = 1, individual animals): 1.324 and 0.9536 and 0.9932 and 1.399
p-jnk/jnk, western blot quantification, Average (C57BL/6 mice; TA muscle of immobilized mice, Sham average = 1): 0.4787
p-jnk/jnk, western blot quantification (C57BL/6 mice; TA muscle of immobilized mice, Sham average = 1, individual animals): 0.7134 and 0.5569 and 0.2233 and 0.4213
DUSP22, western blot quantification, Average (C57BL/6 mice; [3]): 1.587
MYH4, western blot quantification, Average (C57BL/6 mice; [3]): 0.928
DUSP22, western blot quantification (C57BL/6 mice; [4]): 1.411 and 2.335 and 2.043 and 0.8602 and 1.621 and 1.251
MYH4, western blot quantification (C57BL/6 mice; [4]): 1.0151 and 0.5864 and 0.9197 and 0.796 and 1.189 and 1.062
atrogin-1, MuRF-1 and DUSP22 levels, western blot (C2C12 myotubes; Dex-treated myotubes): reduced
Akt activity (C2C12 myotubes; summary statement of the discussion): not upregulated
kidney, liver and heart appearance and mass [1]: no major difference compared to vehicle-treated mice; also recorded: no gross significant change
Kidney mass ([1]; individual animals): 4.5487 and 5.186 and 4.22 and 4.517
Liver mass ([1]; individual animals): 49.3264 and 63.6644 and 45.6088 and 64.8958
heart mass ([1]; individual animals): 3.6875 and 4.058 and 4.981 and 4.532
Kidney mass, Average ([1]; n = 4): 4.6181
Liver mass, Average ([1]; n = 4): 55.8738
heart mass, Average ([1]; n = 4): 4.315
